Values quoted from earlier work as cited in paper PMC6276840, “Challenges and Opportunities of Nanotechnology as Delivery Platform for Tocotrienols in Cancer Therapy” (Frontiers in Pharmacology, 2018).

Assays:
[1] = set-up: method as in Lorusso et al., 2007; Rafiyath et al., 2012; Rom et al., 2014; conditions: when delivered in liposomes; ref Lorusso et al., 2007; Rafiyath et al., 2012; Rom et al., 2014
MDA-MB-231 = MDA-MB-231 cells; ref Alayoubi et al., 2013
MCF-7 = MCF-7 cells; ref Alayoubi et al., 2013
[2] = set-up: method as in Yap et al., 2003; conditions: rats; ref Yap et al., 2003

## COc1cccc2c1C(=O)c1c(O)c3c(c(O)c1C2=O)C[C@@](O)(C(=O)CO)C[C@@H]3O[C@H]1C[C@H](N)[C@H](O)[C@H](C)O1 [doxorubicin]
[1]
  cardiotoxicity: markedly reduced
  hematological toxicity and palmar–plantar erythrodysesthesia: increased incidence

## CCC(C)(C)C(=O)O[C@H]1C[C@@H](C)C=C2C=C[C@H](C)[C@H](CC[C@@H]3C[C@@H](O)CC(=O)O3)[C@H]21 [simvastatin]
MDA-MB-231
  IC50: 8 µM
MCF-7
  IC50: 19 µM

## CC(C)=CCC/C(C)=C/CC/C(C)=C/CC[C@]1(C)CCc2c(C)c(O)c(C)c(C)c2O1 [α-tocotrienol]
[2]
  absolute oral bioavailability: less than 30%

## CC(C)=CCC/C(C)=C/CC/C(C)=C/CC[C@]1(C)CCc2cc(O)c(C)c(C)c2O1 [γ-tocotrienol]
[2]
  absolute oral bioavailability: less than 10%

## CC(C)=CCC/C(C)=C/CC/C(C)=C/CC[C@]1(C)CCc2cc(O)cc(C)c2O1 [δ-tocotrienol]
[2]
  absolute oral bioavailability: less than 10%
